These results are taken from patent publication US20260345555A1, “Compositions and Methods for Protecting Salivary Glands from Off-Target Radiation Damage” (University of Rochester, priority 2022, published 2026).

Where a name gives a salt, the structure may show the parent alone.

In one test the test system is Reduced glutathione in salivary gland cell clusters (SGm). As to the kind of experiment: Glutathione assay in salivary gland tissue chip, 4 days post-radiation (15 Gy); also first screen of Selleck library at 100 μM. In kind it is cell-based, mouse.
Settings: not given
The text has this: A salivary gland tissue chip was leveraged for high-content drug screening to identify novel radioprotective compounds (Song Y et al., Commun Biol., 2021, 4). The chip platform consists of an array of near-spherical microbubble (MB) cavities formed in poly(dimethylsiloxane) (PDMS). Each chip, containing ~50 MBs, affixed within wells of a 96-well plate (FIG. 1C). Primary salivary gland cell clusters (FIG. 1A), suspended in a poly(ethylene glycol) (PEG) hydrogel precursor and MMP-degradable peptide crosslinker solution together with the photoinitiator LAP, were applied to the chip allowing the clusters to deposit into the MBs (FIG. 1D). In situ polymerization of the hydrogel was achieved using long-wave, low intensity UV light. Over time, the cell clusters aggregate and proliferate to form SGm (FIG. 1C).
The glutathione assay was used to measure glutathione levels at various time points post-radiation to determine the optimal time point for detecting differences between 0 Gy and 15 Gy. Based on the data, the greatest signal separation was measured at 4 days post-irradiation (FIG. 9). This timepoint is similar to previous reports on decreases in glutathione post-radiation and was used for all experiments moving forward (Meeks L et al., Physiological Genomics, 2021, 53: 85-98).
The dose response to WR-1065 was examined to determine effective concentrations of WR-1065 to prevent the reduction of glutathione levels post-radiation. A SGm tissue chip was cultured for 4 days to allow spheres to form. The chip was then treated with WR-1065 30 minutes before and during radiation, followed by drug wash out with media 30 minutes post-radiation (FIG. 2A). This dosing scheme is consistent with the use of Amifostine clinically and with previous work. The glutathione assay was performed at 4 days post-radiation (FIG. 2A). […] Moreover, it is clinically relevant as 15-30 minutes before radiation, patients are administered Amifostine intravenously at 200 mg/m (Escobar A et al., IntechOpen, 2019, pp. 15-37; Eisbruch A, J Clin Oncol, 2011, 29: 119-121; Bardet, E. et al. Semin Oncol, 2002, 29, 57-60). Assuming an average adult body surface area of 17,000 cm^2 and a blood volume of 1.35 gallons (5.1 liters), Amifostine is administered at 300 μM (Mosteller, R. D. N Engl J Med 317, 1098 (1987)).
The glutathione and senescence assays were used to screen a library of FDA-approved drugs (Selleck Chemicals) at 100 μM. Drugs were first screened using the glutathione assay according to the timeline depicted in FIG. 2A. Any compound resulting in statistically similar glutathione levels compared to 0 Gy control was considered a hit (FIG. 4, grey circles). Hits with the glutathione assay were then tested with the senescence assay and considered a “double hit” if senescence levels were statistically similar to levels at 0 Gy (FIG. 4, black circles). […] While this hit rate is higher than many other drug screening reports (0.1-0.3%), this may be due to the statistical rigor afforded by the tissue chip format (Blanchard, C et al., Antimicrob Agents Chemother 2016, 60, 862-872; Colquhoun, J. M et al., Antibiotics (Basel) 2019, 8, 48). Additionally, phenotypic screens generally have higher hit rates than target-based screens (>1%) (Moffat, J. G et al., Nature Reviews Drug Discovery 2017, 16, 531-543; Rottman, M et al., Science 2010, 329, 1175-1180).
Mice were euthanized and the submandibular glands (SMG) were removed and chopped with a razor blade for 5 min. The tissue was then incubated in Hank's buffered salt solution (HBSS) containing 15 mM HEPES, 50 U/mL collagenase type II (Thermo Fischer 17101015), and 100 U/mL hyaluronidase (Sigma Aldrich H3506) at 37 °C for 30 min. Cells were centrifuged, then resuspended in HBSS with 15 mM HEPES and passed through 100 μm and 20 μm mesh filters to isolate clusters between 20-100 μm. The digestion protocol produces cell cluster sizes evenly distributed between 20 to 100 μm (Song, Y et al., Advanced Healthcare Materials). […]
Turning to `O=P1(NCCCl)OCCCN1CCCl` (centres unmarked) [Ifosfamide], the “Glutathione: Normalized mean intensity” value turned out to be 0.7162.

With `O=P1(N(CCCl)CCCl)NCCCO1` (centres unmarked) [Clafen (Cyclophosphamide)], the “Glutathione: Normalized mean intensity” value stood at 0.5778.

The same test, now with this note: first screen of Selleck library at 100 μM, 15 Gy, 4 days post-radiation.
As for `Nc1nc(N)nc(-c2cc(Cl)ccc2Cl)n1` [Irsogladine], the “Glutathione normalized mean intensity” value turned out to be 0.613.

As to `O=C([O-])c1cc(=O)c2c(OCC(O)COc3cccc4oc(C(=O)[O-])cc(=O)c34)cccc2o1.[Na+].[Na+]` [Disodium Cromoglycate], the “Glutathione normalized mean intensity” value is reported as 0.6798.

Consider `O=C1c2ccccc2C(=O)C1c1ccccc1` [Phenindione (Rectadione)], for which the “Glutathione normalized mean intensity” value was found to be 0.6802.

On to `C=CCc1cc(OC)c(O)c(C(=O)NCCO)c1` [Alibendol], for which the “Glutathione normalized mean intensity” value turned out to be 0.7165.

Regarding `COc1c2occc2cc2ccc(=O)oc12` [Methoxsalen (Oxsoralen)], the “Glutathione normalized mean intensity” value is on record as 0.6397.

For `Nc1ncnc2c1ncn2[C@@H]1O[C@H](CO)[C@@H](O)[C@@H]1O` [Vidarabine (Vira-A)], the “Glutathione normalized mean intensity” value is reported as 0.3742.

With `CN(C)CCOC(c1ccccc1)c1ccccc1` [Diphenhydramine HCl (Benadryl)], the “Glutathione normalized mean intensity” value is reported as 0.6149.

In the case of `Cc1cc(NS(=O)(=O)c2ccc(N)cc2)no1` [Sulfamethoxazole], the “Glutathione normalized mean intensity” value is recorded as 0.8442.

With `CC1=CC(=O)c2ccccc2C1=O` [Menadione], the “Glutathione normalized mean intensity” value was 0.4363.

On to `CCCOc1ccc2nc(NC(=O)OC)[nH]c2c1` [Oxibendazole], for which the “Glutathione normalized mean intensity” value was 0.747.

For the compound `CNC(=C[N+](=O)[O-])NCCSCc1ccc(CN(C)C)o1` [Ranitidine (Zantac)], the “Glutathione normalized mean intensity” value came to 0.4295.

As to `CC(=O)[C@H]1CC[C@H]2[C@@H]3CC=C4C[C@@H](O)CC[C@]4(C)[C@H]3CC[C@]12C` [Pregnenolone], the “Glutathione normalized mean intensity” value was determined as 0.6057.

Turning to `NNC(=O)c1ccncc1` [Isoniazid (Tubizid)], the “Glutathione normalized mean intensity” value was 0.3683.

`CCOC(=O)[C@H](CCc1ccccc1)N[C@@H](C)C(=O)N1CCC[C@H]1C(=O)O` [Enalapril maleate (Vasotec)]: the “Glutathione normalized mean intensity” value was found to be 0.8307.

In the case of `COc1cc([C@@H]2c3cc4c(cc3[C@@H](O[C@@H]3O[C@@H]5CO[C@@H](c6cccs6)O[C@H]5[C@H](O)[C@H]3O)[C@H]3COC(=O)[C@H]23)OCO4)cc(OC)c1O` [Teniposide (Vumon)], the “Glutathione normalized mean intensity” value came out at 0.4095.

In the case of `C[C@@H]1[C@H](O)[C@@H](C)/C=C/C=C/CC/C=C/C=C/C=C/C=C/C(O[C@H]2O[C@H](C)[C@@H](O)[C@H](N)[C@@H]2O)CC2O[C@](O)(CC(O)C(O)CCC(O)CC(O)CC(O)CC(=O)O[C@H]1C)CC(O)C2C(=O)O` (some centres unmarked) [Nystatin (Mycostatin)], the “Glutathione normalized mean intensity” value is listed as 0.3498.

As to `COc1ccccc1OCC(O)CN1CCN(CC(=O)Nc2c(C)cccc2C)CC1` (centres unmarked) [Ranolazine (Ranexa)], the “Glutathione normalized mean intensity” value amounted to 0.5015.

Take `CO[C@H]1/C=C/O[C@@]2(C)Oc3c(C)c(O)c4c(O)c(c5c(nc6cc(C)ccn65)c4c3C2=O)NC(=O)/C(C)=C\C=C\[C@H](C)[C@H](O)[C@@H](C)[C@@H](O)[C@@H](C)[C@H](OC(C)=O)[C@@H]1C` [Rifaximin (Xifaxan)]: the “Glutathione normalized mean intensity” value is 0.3977.

Regarding `CCCCC(=O)N(Cc1ccc(-c2ccccc2-c2nn[nH]n2)cc1)[C@H](C(=O)O)C(C)C` [Valsartan (Diovan)], the “Glutathione normalized mean intensity” value amounted to 0.6351.

Take `O=C(CCCN1CCC(O)(c2ccc(Cl)cc2)CC1)c1ccc(F)cc1` [Haloperidol (Haldol)]: the “Glutathione normalized mean intensity” value is 0.6675.

Turning to `CC(C)OC(=O)C(C)(C)Oc1ccc(C(=O)c2ccc(Cl)cc2)cc1` [Fenofibrate (Tricor, Trilipix)], the “Glutathione normalized mean intensity” value is 0.5348.

Regarding `CNC(=C[N+](=O)[O-])NCCSCc1csc(CN(C)C)n1` [Nizatidine], the “Glutathione normalized mean intensity” value is 0.5754.

`CCC1(c2ccccc2)C(=O)NCNC1=O` [Primidone (Mysoline)]: the “Glutathione normalized mean intensity” value was 0.8725.

With `OCCN(CCO)c1nc(N2CCCCC2)c2nc(N(CCO)CCO)nc(N3CCCCC3)c2n1` [Dipyridamole (Persantine)], the “Glutathione normalized mean intensity” value is given as 0.5847.

For the compound `Cc1cccc(C)c1NC(=O)CN1CCCC1=O` [Nefiracetam (Translon)], the “Glutathione normalized mean intensity” value is 0.6824.

Consider Bacitracin zinc, for which the “Glutathione normalized mean intensity” value came to 0.6175.

Consider `Cc1c(Cl)cccc1Nc1ccccc1C(=O)O` [Tolfenamic acid], for which the “Glutathione normalized mean intensity” value is recorded as 0.8008.

For the compound `c1ccc(-c2ccc(C(c3ccccc3)n3ccnc3)cc2)cc1` (centres unmarked) [Bifonazole], the “Glutathione normalized mean intensity” value was 0.6115.

Regarding `CCCOc1ccc(C(=O)OCCN(CC)CC)cc1N` [Proparacaine HCl], the “Glutathione normalized mean intensity” value is given as 0.7045.

As for `NC(=O)c1cccnc1` [Nicotinamide (Niacinamide)], the “Glutathione normalized mean intensity” value came to 0.6872.
